Consider 1 compound from patent publication US20120329739A1 (priority 2010, published 2012).

Test [1] deals with melan-A melanocytes. Type of test: cell-based.
Test [2] has as its system hair graying-induced mice (Mitf^mi-vit). The note with it: mouse, in vivo.

`O=c1c(-c2ccc(O)cc2)coc2c([C@@H]3O[C@H](CO)[C@@H](O)[C@H](O)[C@H]3O)c(O)ccc12` [puerarin, 8-C-β-D-glucopyranosyl-7-hydroxy-3-(4-hydroxyphenyl)-4H-1-benzopyran-4-one]: in test [1], the “concentration dependence of melanin synthesis promoting effect” value is “concentration-dependent” and the “melanin content relative to the negative control group” value is given as “the melanin content is higher than the negative control group”. Further, in test [2], the “concentration dependence of the effect on hair melanin content” value is “the effect increases as the concentration of puerarin increases”.
